Data from PubChem BioAssay (NCI).
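Five concentrations, 48 hours, 96-well plates. TGI: total growth inhibition.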

Experiments:
Experiment in all cases: NCI tumour cell line growth inhibition, 48 h
[1] = test system: UACC-257 melanoma
[2] = test system: OVCAR-5 ovarian
[3] = test system: RXF 393 renal
[4] = test system: IGROV1 ovarian
[5] = test system: M14 melanoma
[6] = test system: NCI-H460 lung
[7] = test system: TK-10 renal
[8] = test system: K-562 leukemia
[9] = test system: NCI/ADR-RES ovarian
[10] = test system: A498 renal
[11] = test system: MALME-3M melanoma
[12] = test system: CAKI-1 renal
[13] = test system: OVCAR-3 ovarian
[14] = test system: HCC-2998 colon
[15] = test system: EKVX NSCLC
[16] = test system: NCI-H226 lung
[17] = test system: PC-3 prostate
[18] = test system: RPMI-8226 leukemia
[19] = test system: 786-0 renal
[20] = test system: UACC-62 melanoma
[21] = test system: SF-268 CNS
[22] = test system: SK-MEL-2 melanoma
[23] = test system: KM12 colon
[24] = test system: SF-295 CNS
[25] = test system: HCT-15 colon
[26] = test system: CCRF-CEM leukemia
[27] = test system: NCI-H522 lung
[28] = test system: OVCAR-8 ovarian
[29] = test system: SK-MEL-28 melanoma
[30] = test system: HT29 colon
[31] = test system: A549 NSCLC
[32] = test system: HCT-116 colon
[33] = test system: SR leukemia
[34] = test system: UO-31 renal
[35] = test system: SK-MEL-5 melanoma
[36] = test system: HL-60(TB) leukemia
[37] = test system: U251 CNS
[38] = test system: MDA-MB-231 breast
[39] = test system: MCF7 breast
[40] = test system: SF-539 CNS
[41] = test system: OVCAR-4 ovarian
[42] = test system: COLO 205 colon
[43] = test system: ACHN renal
[44] = test system: NCI-H23 lung
[45] = test system: HOP-62 NSCLC
[46] = test system: LOX IMVI melanoma
[47] = test system: DU-145 prostate
[48] = test system: SW-620 colon
[49] = test system: SNB-75 CNS
[50] = test system: HOP-92 NSCLC
[51] = test system: HS 578T breast
[52] = test system: T-47D breast
[53] = test system: MDA-MB-435
[54] = test system: SNB-19 CNS
[55] = test system: MDA-N
[56] = test system: SK-OV-3 ovarian
[57] = test system: MOLT-4 leukemia
[58] = test system: SN12C renal

## COC1(C)OC[C@@]2(C)OC(C)C1(C)C2O[Si](C(C)C)(C(C)C)C(C)C (stereo partly drawn)
[1]
  TGI: 47.6 µM
[2]
  TGI: 71.8 µM
[3]
  TGI: 57 µM
[4]
  TGI: 78.5 µM
[5]
  TGI: > 100 µM
[6]
  TGI: 62.9 µM
[7]
  TGI: 80.2 µM
[8]
  TGI: 82.3 µM
[9]
  TGI: 60.3 µM
[10]
  TGI: > 100 µM
[11]
  TGI: 51 µM
[12]
  TGI: 88 µM
[13]
  TGI: 50 µM
[14]
  TGI: 40.8 µM
[15]
  TGI: 70.9 µM
[16]
  TGI: 45.8 µM
[17]
  TGI: > 100 µM
[18]
  TGI: 89.3 µM
[19]
  TGI: > 100 µM
[20]
  TGI: > 100 µM
[21]
  TGI: > 100 µM
[22]
  TGI: 45.2 µM
[23]
  TGI: > 100 µM
[24]
  TGI: 47.3 µM
[25]
  TGI: 48 µM
[26]
  TGI: 54.6 µM
[27]
  TGI: 59.1 µM
[28]
  TGI: > 100 µM
[29]
  TGI: > 100 µM
[30]
  TGI: > 100 µM
[31]
  TGI: > 100 µM
[32]
  TGI: > 100 µM
[33]
  TGI: 85.7 µM
[34]
  TGI: 96.7 µM
[35]
  TGI: 52.5 µM
[36]
  TGI: 40.4 µM
[37]
  TGI: > 100 µM
[38]
  TGI: > 100 µM
[39]
  TGI: 32.9 µM
[40]
  TGI: > 100 µM
[41]
  TGI: > 100 µM
[42]
  TGI: 32.3 µM
[43]
  TGI: 62.2 µM
[44]
  TGI: 62.5 µM
[45]
  TGI: > 100 µM
[46]
  TGI: 42.6 µM
[47]
  TGI: > 100 µM
[48]
  TGI: > 100 µM
[49]
  TGI: 69.4 µM
[50]
  TGI: 63 µM
[51]
  TGI: 86.8 µM
[52]
  TGI: 71.3 µM
[53]
  TGI: > 100 µM
[54]
  TGI: > 100 µM
[55]
  TGI: > 100 µM
[56]
  TGI: > 100 µM
[57]
  TGI: 50.9 µM
[58]
  TGI: 58.4 µM

## C/C(O)=c1\cc(C#N)c(=C(C#N)C#N)nc1C
[2]
  TGI: > 100 µM
[3]
  TGI: > 100 µM
[4]
  TGI: > 100 µM
[5]
  TGI: > 100 µM
[6]
  TGI: > 100 µM
[8]
  TGI: > 100 µM
[9]
  TGI: > 100 µM
[10]
  TGI: > 100 µM
[11]
  TGI: > 100 µM
[12]
  TGI: > 100 µM
[14]
  TGI: > 100 µM
[15]
  TGI: > 100 µM
[16]
  TGI: > 100 µM
[17]
  TGI: > 100 µM
[18]
  TGI: > 100 µM
[19]
  TGI: > 100 µM
[20]
  TGI: > 100 µM
[21]
  TGI: > 100 µM
[22]
  TGI: > 100 µM
[23]
  TGI: > 100 µM
[25]
  TGI: > 100 µM
[26]
  TGI: > 100 µM
[27]
  TGI: > 100 µM
[28]
  TGI: > 100 µM
[29]
  TGI: > 100 µM
[30]
  TGI: > 100 µM
[31]
  TGI: > 100 µM
[32]
  TGI: > 100 µM
[33]
  TGI: > 100 µM
[34]
  TGI: > 100 µM
[35]
  TGI: > 100 µM
[36]
  TGI: > 100 µM
[37]
  TGI: > 100 µM
[38]
  TGI: > 100 µM
[39]
  TGI: > 100 µM
[40]
  TGI: > 100 µM
[41]
  TGI: > 100 µM
[42]
  TGI: > 100 µM
[43]
  TGI: > 100 µM
[44]
  TGI: > 100 µM
[45]
  TGI: > 100 µM
[46]
  TGI: > 100 µM
[47]
  TGI: > 100 µM
[48]
  TGI: > 100 µM
[49]
  TGI: > 100 µM
[50]
  TGI: > 100 µM
[51]
  TGI: > 100 µM
[52]
  TGI: > 100 µM
[53]
  TGI: > 100 µM
[54]
  TGI: > 100 µM
[55]
  TGI: > 100 µM
[57]
  TGI: > 100 µM
[58]
  TGI: > 100 µM

## COC(=O)c1cc(CC2Cc3cc4c(cc3C2)CCC4)cc2c1CCC2
[1]
  TGI: > 100 µM
[2]
  TGI: > 100 µM
[3]
  TGI: > 100 µM
[4]
  TGI: > 100 µM
[5]
  TGI: > 100 µM
[6]
  TGI: > 100 µM
[7]
  TGI: > 100 µM
[8]
  TGI: > 100 µM
[9]
  TGI: > 100 µM
[10]
  TGI: > 100 µM
[11]
  TGI: > 100 µM
[12]
  TGI: > 100 µM
[13]
  TGI: > 100 µM
[14]
  TGI: > 100 µM
[15]
  TGI: > 100 µM
[16]
  TGI: > 100 µM
[17]
  TGI: > 100 µM
[18]
  TGI: > 100 µM
[19]
  TGI: > 100 µM
[21]
  TGI: > 100 µM
[22]
  TGI: > 100 µM
[23]
  TGI: > 100 µM
[24]
  TGI: > 100 µM
[25]
  TGI: > 100 µM
[26]
  TGI: > 100 µM
[27]
  TGI: > 100 µM
[28]
  TGI: > 100 µM
[29]
  TGI: > 100 µM
[30]
  TGI: > 100 µM
[31]
  TGI: > 100 µM
[32]
  TGI: > 100 µM
[33]
  TGI: 94 µM
[34]
  TGI: > 100 µM
[35]
  TGI: > 100 µM
[36]
  TGI: > 100 µM
[37]
  TGI: > 100 µM
[38]
  TGI: > 100 µM
[39]
  TGI: > 100 µM
[40]
  TGI: > 100 µM
[41]
  TGI: > 100 µM
[42]
  TGI: > 100 µM
[43]
  TGI: > 100 µM
[44]
  TGI: > 100 µM
[45]
  TGI: > 100 µM
[46]
  TGI: > 100 µM
[47]
  TGI: > 100 µM
[48]
  TGI: > 100 µM
[49]
  TGI: > 100 µM
[50]
  TGI: > 100 µM
[51]
  TGI: > 100 µM
[52]
  TGI: > 100 µM
[53]
  TGI: > 100 µM
[54]
  TGI: > 100 µM
[55]
  TGI: > 100 µM
[56]
  TGI: > 100 µM
[57]
  TGI: 55.7 µM
[58]
  TGI: > 100 µM
